# Reference: ChEMBL document CHEMBL4004849, “Tetrazolylmethyl quinolines: Design, docking studies, synthesis, anticancer and antifungal analyses” (2017)
# What was measured:
# Assay type in all cases: functional
# [1] = tested on: Candida albicans; experiment: Antifungal activity against Candida albicans at 100 ug/ml by disc diffusion method; conditions: read-out: IZ
# [2] = tested on: Aspergillus fumigatus; experiment: Antifungal activity against Aspergillus fumigatus after 24 hrs by serial dilution method
# [3] = tested on: Candida albicans; experiment: Antifungal activity against Candida albicans after 24 hrs by serial dilution method
# [4] = tested on: Aspergillus fumigatus; experiment: Antifungal activity against Aspergillus fumigatus at 100 ug/ml by disc diffusion method; conditions: read-out: IZ
Structure (SMILES),zone of inhibition at 100 µg/mL [1] [mm],MIC [2] [µg/mL],MIC [3] [µg/mL],zone of inhibition at 100 µg/mL [4] [mm]
Clc1nc2ccc(Br)cc2cc1Cn1nnc(CSc2ccccc2)n1,18,5,25,15
OC(Cn1cncn1)(Cn1cncn1)c1ccc(F)cc1F [FLUCONAZOLE],24,30,30,26
Cc1ccc2nc(Cl)c(Cn3nnc(Cc4ccccc4)n3)cc2c1,12,25,25,12
COc1ccc2nc(Cl)c(Cn3nnc(CSc4ccccc4)n3)cc2c1,16,10,25,20
